We go through two compounds from patent publication US20200354426A1 (MEDIMMUNE LIMITED, priority 2016, published 2020).

Read-outs that look alike come from different tables or passages of the source. Numbered stars: 1 amine (or outer) side, 2 acyl side, 3 side chain; on linkers, the order of the positions; unused ones are H or OH. Side chains are listed from the residue outwards. Peptide text beside a SMILES is read from it. * marks the point of attachment. γGlu = O=C(O)[C@H](CCC(=O)[*:2])N[*:1]; Palmitoyl = CCCCCCCCCCCCCCCC(=O)* A value given as a limit tells only on which side of the number the result lay.

In one series the target is T1, Human GIPr (Homo sapiens, UniProt P48546).
T1 construct: expressed in transfected cells
T1 sequence (P48546 22-466): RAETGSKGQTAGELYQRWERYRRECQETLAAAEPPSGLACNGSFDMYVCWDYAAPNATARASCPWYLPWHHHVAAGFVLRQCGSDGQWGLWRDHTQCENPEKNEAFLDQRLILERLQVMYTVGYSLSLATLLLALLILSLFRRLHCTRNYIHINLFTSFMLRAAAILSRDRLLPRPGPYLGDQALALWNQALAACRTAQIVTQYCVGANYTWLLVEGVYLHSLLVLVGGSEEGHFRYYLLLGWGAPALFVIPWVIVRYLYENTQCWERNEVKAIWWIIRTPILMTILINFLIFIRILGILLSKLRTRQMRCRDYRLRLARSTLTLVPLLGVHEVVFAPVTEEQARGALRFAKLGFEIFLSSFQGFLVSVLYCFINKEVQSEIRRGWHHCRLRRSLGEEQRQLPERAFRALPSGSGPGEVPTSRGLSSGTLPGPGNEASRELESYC
Kind of series: cAMP activity assay in assay medium (assay 1). It counts as cell-based. As to conditions: assay medium. The source says:
(§1) Biological Activity of Peptides in Cell-Based cAMP Activity Assay (Assay 1):
(§2) All sample dilutions were made in duplicate.

A further series concerns the target T2, Human GlucR (Homo sapiens, UniProt P47871).
T2 construct: expressed in transfected cells
Kind of series: cAMP activity assay in assay medium (assay 1). It counts as cell-based. As to conditions: assay medium.
Source text: as §1, §2

In a further series the target is T3, Rat GlucR (Rattus norvegicus, UniProt P30082).
T3 construct: expressed in transfected cells
The experiment in a line: cAMP assay in 3.2% rat serum albumin (assay 2). It counts as cell-based. As to conditions: for Rat GlucR/GLP1R Ratio: […] rat serum albumin, relative potencies vs natural ligands. (In general: Cyclic AMP is a second messenger, typically raised through Gs and lowered through Gi signalling.)

Series [1] is described as follows: Stability testing of peptides in plasma. It counts as in vitro ADME, mouse. How it is done: (§3) The stability in plasma of the peptideS […], […], […] and […] was determined as follows. […] The spiked plasma samples were gently mixed and allowed to equilibrate for about 5 minutes before start of experiment. The plasma samples were incubated for 48 hours in a GalaxyR CO2 incubator at 37° C. […] The samples were stored at -70° C. until analysis. Plasma samples were assayed as follows. […] After mixing and centrifugation, 100 μl the supernatant was transferred to a new plate and 1 μl was injected onto an analytical column. The analysis was performed using a μLC-system ([…]) coupled to a medium high resolution mass spectrometer (Perkin Elmer PenTOF) with positive electrospray ionisation. […] Flow: 0.1 ml/min using a slow reversed phase gradient. […] Cleavage products arise from the action of the protease DPP IV in plasma. Both the degradation of the peptides and formation of peptide products were reported in percentage of the initial peptide concentration. Peaks were integrated and % remaining peptide was calculated: […] Levels of deamidation and DPP IV cleavage were low for […] and […].

Series [2] is described as follows: Stability testing of peptides in plasma. It counts as in vitro ADME, rat. On the procedure:
as §3

The nature of series [3]: Peptide solubility in isotonic formulations (A280). It counts as physicochemical. On the procedure:
Default Formulation (DF)=0.1 M Tris pH 7.5, 150 mM Mannitol. Final formulation pH=7.2 • 2. Back up formulation t (BF)=0.05M Tris, 50 mM Arginine/Proline. Final formulation pH=9.0 • 3. […] Final formulation pH=7.0

The target in another series is Human GLP1R (Homo sapiens, UniProt P43220). The experiment in a line: cAMP activity assay in assay medium (assay 1). It counts as cell-based. Set-up: expressed in transfected cells. The note with it: assay medium.
Source text: as §1, §2

T3 sequence (P30082 27-485): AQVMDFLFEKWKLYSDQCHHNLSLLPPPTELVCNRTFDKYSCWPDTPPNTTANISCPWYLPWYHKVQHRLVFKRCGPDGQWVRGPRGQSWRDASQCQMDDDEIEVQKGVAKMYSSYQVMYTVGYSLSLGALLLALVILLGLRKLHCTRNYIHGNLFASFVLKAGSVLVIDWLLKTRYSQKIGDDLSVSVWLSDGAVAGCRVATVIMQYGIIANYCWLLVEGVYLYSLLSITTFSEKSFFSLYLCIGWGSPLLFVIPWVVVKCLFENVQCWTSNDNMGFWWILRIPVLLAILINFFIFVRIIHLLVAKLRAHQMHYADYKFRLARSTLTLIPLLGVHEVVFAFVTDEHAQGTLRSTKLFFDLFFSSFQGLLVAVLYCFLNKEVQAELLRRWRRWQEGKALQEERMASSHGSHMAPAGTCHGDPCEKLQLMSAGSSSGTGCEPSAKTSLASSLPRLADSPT
T2 sequence (P47871 26-477): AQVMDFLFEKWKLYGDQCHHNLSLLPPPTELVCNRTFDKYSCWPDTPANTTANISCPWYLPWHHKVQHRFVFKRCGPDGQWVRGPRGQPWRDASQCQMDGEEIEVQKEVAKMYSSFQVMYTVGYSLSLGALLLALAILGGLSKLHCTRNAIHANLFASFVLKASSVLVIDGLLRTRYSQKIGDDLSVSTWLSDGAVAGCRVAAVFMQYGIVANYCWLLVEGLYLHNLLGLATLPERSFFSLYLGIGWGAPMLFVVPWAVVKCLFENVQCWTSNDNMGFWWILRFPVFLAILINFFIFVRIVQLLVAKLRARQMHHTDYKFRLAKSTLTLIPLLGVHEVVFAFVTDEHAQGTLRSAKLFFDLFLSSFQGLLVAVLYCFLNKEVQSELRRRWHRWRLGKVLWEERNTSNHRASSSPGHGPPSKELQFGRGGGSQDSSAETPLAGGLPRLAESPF
Sequence of Human GLP1R (P43220 24-463): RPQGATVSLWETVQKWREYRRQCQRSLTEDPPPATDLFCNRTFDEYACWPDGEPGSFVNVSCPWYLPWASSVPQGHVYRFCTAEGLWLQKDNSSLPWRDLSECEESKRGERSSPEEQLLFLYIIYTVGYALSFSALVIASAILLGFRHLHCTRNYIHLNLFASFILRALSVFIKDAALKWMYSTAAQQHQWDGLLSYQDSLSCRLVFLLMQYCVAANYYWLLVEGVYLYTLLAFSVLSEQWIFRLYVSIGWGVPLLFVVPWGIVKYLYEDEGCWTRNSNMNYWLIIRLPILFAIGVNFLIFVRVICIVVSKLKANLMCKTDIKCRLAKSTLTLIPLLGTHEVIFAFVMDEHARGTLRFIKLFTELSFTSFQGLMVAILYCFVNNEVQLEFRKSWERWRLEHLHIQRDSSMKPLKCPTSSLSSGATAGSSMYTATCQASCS

In general, EC50 refers to the concentration at which the effect is half-maximal. The solubility is how much of the substance goes into solution per volume. A lower solubility goes with a poorly soluble substance. Regarding `CCCCCCCCCCCCCCCC(=O)N[C@@H](CCC(=O)NCCCC[C@H](NC(=O)[C@H](CCCCN)NC(=O)[C@H](CO)NC(=O)[C@H](Cc1ccc(O)cc1)NC(=O)[C@H](CC(=O)O)NC(=O)[C@H](CO)NC(=O)[C@@H](NC(=O)[C@H](Cc1ccccc1)NC(=O)[C@@H](NC(=O)CNC(=O)[C@H](CCC(N)=O)NC(=O)[C@H](CO)NC(=O)[C@@H](N)Cc1c[nH]cn1)[C@@H](C)O)[C@@H](C)O)C(=O)N[C@@H](CC(C)C)C(=O)N[C@@H](CC(=O)O)C(=O)N[C@@H](CO)C(=O)N[C@@H](CCC(=O)O)C(=O)N[C@@H](CCCNC(=N)N)C(=O)N[C@@H](C)C(=O)N[C@@H](CCCNC(=N)N)C(=O)N[C@@H](CC(=O)O)C(=O)N[C@@H](Cc1ccccc1)C(=O)N[C@H](C(=O)N[C@@H](C)C(=O)N[C@@H](Cc1c[nH]c2ccccc12)C(=O)N[C@@H](CC(C)C)C(=O)N[C@H](C(=O)N[C@@H](C)C(=O)NCC(=O)NCC(N)=O)C(C)C)C(C)C)C(=O)O` [Peptide G730] (H-HSQGTFTSDYSKK([γGlu-Palmitoyl])LDSERARDFVAWLVAGG-NH2; N-terminus assumed), the concentration giving a half-maximal response (EC50) at Human GIPr (Table 2, C-terminal amide peptides, read-out: Human GIPr EC50) was determined as 45 nM; at Human GIPr (Table 4, read-out: hGIPR EC50), 56.6 nM; at Human GlucR (Table 2, C-terminal amide peptides, read-out: Human GlucR EC50), 0.00623 nM; on Human GlucR (Table 4, read-out: hGlucR EC50), 0.015 nM; on Rat GlucR (3.2% rat serum albumin) it was 45.1 nM; on Human GLP1R (Table 2, C-terminal amide peptides, read-out: Human GLP1R EC50), 0.018 nM. In addition, the EC50 at Human GLP1R (Table 4, read-out: hGLP1R EC50) is 0.0395 nM. The “Rat GlucR/GLP1R Ratio” value on Rat GlucR is given as 0.06. Moreover, the “% +1 DPP cleaved product” value in series [1] was found to be 5%. The figures for the “% +1 prod” value in series [1] and in series [2] were 15% and 58%, respectively. In series [1], the “% DPP cleaved product” value was 14%. For the same compound, the remaining at 24 h, 2 μmol/L in series [1] (mouse plasma, 37° C., 24 h, read-out: % stable peptide) came to 65%; in series [2] (rat, plasma) it was 24%. For the same compound, the “% DPP cleaved product/+1 DPP cleaved product” value in series [2] is 2%. The compound further had a solubility in series [3] (Default Formulation (DF), isotonic, DF = 0.1 M Tris pH 7.5, 150 mM Mannitol) of at least 5000 µg/mL. Also, the “Formulation Concentration” value in series [3] (Formulation DF, by A280 nm) stood at 5 mg/mL. In series [3] (yes/no), the “10 mg/ml solubility (BF2)” value is “no”.

Turning to “L-Histidyl-L-seryl-L-glutaminylglycyl-L-threonyl-L-phenylalanyl-L-threonyl-L-seryl-L-alpha-aspartyl-(N6-[N-(1-oxohexadecyl)-L-gamma-gutamyl])L-lysy-L-sery-L-alpha-glutamyl-L-tyrosyl-L-leucyl-L-alpha-aspartyl-L-seryl-L-alpha-glutamyl-L-arginyl-L-alanyl-L-arginyl-L-alpha-L-aspartyl-L-phenylalanyl-L-valyl-L-alanyl-L-tryptophyl-L-leucyl-L-alpha-glutamyl-L-alanylglycylglycine [Peptide G933]”, on Rat GlucR, the “Rat GlucR/GLP1R Ratio” value turned out to be 0.27.
